Values after ≈ are worked out from the molar mass of the structure shown.
Columns and labels:
Format in all cases: cell-based
[1] = system: Plasmodium falciparum, chloroquine-resistant strain RFCR3; experiment: activity against P. falciparum in vitro, strain RFCR3; details: chloroquine-resistant strain RFCR3, 48 h-72 h, read-out: IC50 (50% growth inhibition)
Protocol: (§1) Test method for the determination of the activity against P. falciparum in vitro
(§2) The preparations of the present invention were tested on intraerythrocytary stages of P. falciparum from asynchronous cultures according to the method of Desjardin et al. (Desjardins, R. E. et al: Quantitative assessment of antimalarial activity in vitro by a semiautomated microdilution technique. Antimicrob. Agents Chemother. 16, 710-718, (1979)).
(§3) The culture medium consisted of RPMI 1640 with the addition of 25 mM HEPES, 25 mM NaHCO3, […] neomycin and 10% human serum (A^+). Human-A^+ erythrocytes were used as the P. falciparum host cells. The parasites were maintained at 37° C. in an atmosphere of 3% O2, 4% CO2, 93% N2 and at 95% relative humidity.
(§4) In order to determine the activity, the preparations were dissolved in DMSO, pre-diluted in the culture medium to a suitable starting concentration and subsequently titrated-out into microtitre plates in the 2nd stage over 6-7 steps. After the addition of the parasite culture (0.7% parasitemia in 2.5% erythrocyte suspension), the test plates were incubated under the conditions given above for 48 h-72 h. The parasite growth in the different preparation concentrations was determined using [G-^3 H]-hypoxanthin incorporation compared to untreated control cultures on the same test plates. The 50% growth inhibition (IC50) was calculated according to logit regression analysis from the resulting dosage-activity curve.
(§5) The preparations were tested on at least one chloroquine-resistant and one chloroquine-sensitive P. falciparum strain. Additional sensitive and resistant strains were also included for further characterization.
(§6) Table 1 below contains the IC50 values measured in vitro for the growth inhibition of chloroquine-sensitive and chloroquine-resistant strains of the human pathogenic Plasmodium falciparum.

[2] = system: Plasmodium falciparum, chloroquine-sensitive strain NF54; experiment: activity against P. falciparum in vitro, strain NF54; details: Plasmodium falciparum; chloroquine-sensitive strain NF54; 48 h-72 h; read-out: IC50 (50% growth inhibition)
Protocol: as §1, §2, §3, §4, §5, §6

[3] = system: Plasmodium falciparum, chloroquine-resistant strain K1; experiment: activity against P. falciparum in vitro, strain K1; details: Plasmodium falciparum; chloroquine-resistant strain K1; 48 h-72 h; read-out: IC50 (50% growth inhibition)
Protocol: as §1, §2, §3, §4, §5, §6

[4] = system: Plasmodium falciparum, chloroquine-resistant strain Indo; experiment: activity against P. falciparum in vitro, strain Indo; details: chloroquine-resistant strain Indo, 48 h-72 h, read-out: IC50 (50% growth inhibition)
Protocol: as §1, §2, §3, §4, §5, §6

[5] = system: Plasmodium falciparum, chloroquine-resistant strain W2; experiment: activity against P. falciparum in vitro, strain W2; details: chloroquine-resistant strain W2, 48 h-72 h, read-out: IC50 (50% growth inhibition)
Protocol: as §1, §2, §3, §4, §5, §6

[6] = system: Plasmodium falciparum, chloroquine-sensitive strain Ro7 3; experiment: activity against P. falciparum in vitro, strain Ro7 3; details: chloroquine-sensitive strain Ro7 3, 48 h-72 h, read-out: IC50 (50% growth inhibition)
Protocol: as §1, §2, §3, §4, §5, §6

[7] = system: Plasmodium falciparum, chloroquine-resistant strain W2 Mef; experiment: activity against P. falciparum in vitro, strain W2 Mef; details: 48 h-72 h, read-out: IC50 (50% growth inhibition)
Protocol: as §1, §2, §3, §4, §5, §6

[8] = system: Plasmodium falciparum, chloroquine-resistant strain 7G8; experiment: activity against P. falciparum in vitro, strain 7G8; details: chloroquine-resistant strain 7G8, 48 h-72 h, read-out: IC50 (50% growth inhibition)
Protocol: as §1, §2, §3, §4, §5, §6

[9] = system: Plasmodium falciparum, chloroquine-sensitive strain HB3; experiment: activity against P. falciparum in vitro, strain HB3; details: chloroquine-sensitive strain HB3, 48 h-72 h, read-out: IC50 (50% growth inhibition)
Protocol: as §1, §2, §3, §4, §5, §6

[10] = system: Plasmodium falciparum, chloroquine-sensitive strain RFMEF3; experiment: activity against P. falciparum in vitro, strain RFMEF3; details: chloroquine-sensitive strain RFMEF3, 48 h-72 h, read-out: IC50 (50% growth inhibition)
Protocol: as §1, §2, §3, §4, §5, §6

[11] = system: Plasmodium falciparum, chloroquine-resistant strain ItG2 F6; experiment: activity against P. falciparum in vitro, strain ItG2 F6; details: chloroquine-resistant strain ItG2 F6, 48 h-72 h, read-out: IC50 (50% growth inhibition)
Protocol: as §1, §2, §3, §4, §5, §6

[12] = system: Plasmodium falciparum, chloroquine-sensitive strain FCH5C2; experiment: activity against P. falciparum in vitro, strain FCH5C2; details: chloroquine-sensitive strain FCH5C2, 48 h-72 h, read-out: IC50 (50% growth inhibition)
Protocol: as §1, §2, §3, §4, §5, §6

Structure (SMILES)	IC50 [1]	IC50 [2]	IC50 [3]	IC50 [4]	IC50 [5]	IC50 [6]	IC50 [7]	IC50 [8]	IC50 [9]	IC50 [10]	IC50 [11]	IC50 [12]
CC(C)(CN1CCCC1)Nc1ccnc2cc(Cl)ccc12 [Example 13, (7-Chloro-quinolin-4-yl)-(1,1-dimethyl-2-pyrrolidin-1-yl-ethyl)-amine]	0.058 µg/mL (≈ 0.191 µM)	0.03 µg/mL (≈ 0.0987 µM)	0.047 µg/mL (≈ 0.155 µM)	0.04 µg/mL (≈ 0.132 µM)	0.034 µg/mL (≈ 0.112 µM)	0.03 µg/mL (≈ 0.0987 µM)	0.041 µg/mL (≈ 0.135 µM)	0.039 µg/mL (≈ 0.128 µM)	0.038 µg/mL (≈ 0.125 µM)	0.027 µg/mL (≈ 0.0889 µM)	0.025 µg/mL (≈ 0.0823 µM)	0.028 µg/mL (≈ 0.0922 µM)
CCN1CCCC1CNc1ccnc2cc(Cl)ccc12 (stereo not drawn) [Example 12, (7-Chloro-quinolin-4-yl)-(1-ethyl-pyrrolidin-2-yl-methyl)-amine]	0.015 µg/mL (≈ 0.0518 µM)	0.006 µg/mL (≈ 0.0207 µM)	0.01 µg/mL (≈ 0.0345 µM)	0.012 µg/mL (≈ 0.0414 µM)	0.015 µg/mL (≈ 0.0518 µM)	0.007 µg/mL (≈ 0.0242 µM)	0.009 µg/mL (≈ 0.0311 µM)	0.015 µg/mL (≈ 0.0518 µM)	0.007 µg/mL (≈ 0.0242 µM)	0.008 µg/mL (≈ 0.0276 µM)	0.008 µg/mL (≈ 0.0276 µM)	0.009 µg/mL (≈ 0.0311 µM)
CC(CN1CCCC1)Nc1ccnc2cc(Cl)ccc12 (racemic) [Example 3, (RS)-(7-Chloro-quinolin-4-yl)-(1-methyl-2-pyrrolidin-1-yl-ethyl)-amine]	0.008 µg/mL (≈ 0.0276 µM)	0.007 µg/mL (≈ 0.0242 µM)	0.012 µg/mL (≈ 0.0414 µM)	0.006 µg/mL (≈ 0.0207 µM)	0.007 µg/mL (≈ 0.0242 µM)	0.004 µg/mL (≈ 0.0138 µM)	0.011 µg/mL (≈ 0.038 µM)	0.007 µg/mL (≈ 0.0242 µM)	0.005 µg/mL (≈ 0.0173 µM)	0.007 µg/mL (≈ 0.0242 µM)	0.005 µg/mL (≈ 0.0173 µM)	0.007 µg/mL (≈ 0.0242 µM)
CC1CCC(C)N1CCNc1ccnc2cc(Cl)ccc12 (stereo not drawn) [Example 30, (7-Chloro-quinolin-4-yl)-[2-(2,5-dimethyl-pyrrolidin-1-yl)-ethyl]-amine]	0.016 µg/mL (≈ 0.0527 µM)	0.007 µg/mL (≈ 0.023 µM)	0.014 µg/mL (≈ 0.0461 µM)	0.007 µg/mL (≈ 0.023 µM)	0.015 µg/mL (≈ 0.0494 µM)	0.011 µg/mL (≈ 0.0362 µM)	0.008 µg/mL (≈ 0.0263 µM)	0.015 µg/mL (≈ 0.0494 µM)	0.01 µg/mL (≈ 0.0329 µM)	0.008 µg/mL (≈ 0.0263 µM)	0.007 µg/mL (≈ 0.023 µM)	0.009 µg/mL (≈ 0.0296 µM)
CC(CN1CCCCC1)Nc1ccnc2cc(Cl)ccc12 (racemic) [Example 4, (RS)-(7-Chloro-quinolin-4-yl)-(1-methyl-2-piperidin-1-yl-ethyl)-amine]	0.009 µg/mL (≈ 0.0296 µM)	0.007 µg/mL (≈ 0.023 µM)	0.015 µg/mL (≈ 0.0494 µM)	0.008 µg/mL (≈ 0.0263 µM)	0.015 µg/mL (≈ 0.0494 µM)	0.004 µg/mL (≈ 0.0132 µM)	0.014 µg/mL (≈ 0.0461 µM)	0.007 µg/mL (≈ 0.023 µM)	0.008 µg/mL (≈ 0.0263 µM)	0.007 µg/mL (≈ 0.023 µM)	0.005 µg/mL (≈ 0.0165 µM)	0.008 µg/mL (≈ 0.0263 µM)
CCC1CCCCN1CCNc1ccnc2cc(Cl)ccc12 (racemic) [Example 27, (RS)-(7-Chloro-quinolin-4-yl)-[2-(2-ethyl-piperidin-1-yl)-ethyl]amine]	0.015 µg/mL (≈ 0.0472 µM)	0.008 µg/mL (≈ 0.0252 µM)	0.018 µg/mL (≈ 0.0566 µM)	0.009 µg/mL (≈ 0.0283 µM)	0.019 µg/mL (≈ 0.0598 µM)	0.003 µg/mL (≈ 0.00944 µM)	0.014 µg/mL (≈ 0.044 µM)	0.007 µg/mL (≈ 0.022 µM)	0.009 µg/mL (≈ 0.0283 µM)	0.007 µg/mL (≈ 0.022 µM)	0.007 µg/mL (≈ 0.022 µM)	0.01 µg/mL (≈ 0.0315 µM)
CC1CCCN(CCNc2ccnc3cc(Cl)ccc23)C1 (racemic) [Example 23, (RS)-(7-Chloro-quinolin-4-yl)-[2-(3-methyl-piperidin-1-yl)-ethyl]-amine]	0.01 µg/mL (≈ 0.0329 µM)	0.006 µg/mL (≈ 0.0197 µM)	0.015 µg/mL (≈ 0.0494 µM)	0.008 µg/mL (≈ 0.0263 µM)	0.015 µg/mL (≈ 0.0494 µM)	0.004 µg/mL (≈ 0.0132 µM)	0.013 µg/mL (≈ 0.0428 µM)	0.008 µg/mL (≈ 0.0263 µM)	0.007 µg/mL (≈ 0.023 µM)	0.007 µg/mL (≈ 0.023 µM)	0.006 µg/mL (≈ 0.0197 µM)	0.006 µg/mL (≈ 0.0197 µM)
CN(C)CCNc1ccnc2cc(C(F)(F)F)ccc12 [Example 22, N1,N1 -Dimethyl-N2-(7trifluoromethyl-quinolin-4-yl)-ethane-1,2-diamine]	0.02 µg/mL (≈ 0.0706 µM)	0.014 µg/mL (≈ 0.0494 µM)	0.022 µg/mL (≈ 0.0777 µM)	0.016 µg/mL (≈ 0.0565 µM)	0.011 µg/mL (≈ 0.0388 µM)	0.011 µg/mL (≈ 0.0388 µM)	0.023 µg/mL (≈ 0.0812 µM)	0.029 µg/mL (≈ 0.102 µM)	0.02 µg/mL (≈ 0.0706 µM)	0.018 µg/mL (≈ 0.0635 µM)	0.014 µg/mL (≈ 0.0494 µM)	0.017 µg/mL (≈ 0.06 µM)

— patent US5596002A, “Method of treating chloroquine-resistant malaria with aminoquinoline derivatives” (Hoffmann-La Roche Inc., priority 1993, dated 1997)
